The results in this text go back to US20250163104A1, “MACROCYCLIC IMMUNOMODULATORS” (priority 2021, published 2025).

Where a SMILES comes first, the peptide text is derived from it. Bridges are numbered along the chain shown (N, C = ends). [ ]: non-standard residue; d: D form. The star is where a group is joined. ξ: configuration not given here. Phe(4-COOH) = N[C@@H](Cc1ccc(C(=O)O)cc1)C(=O)O; Bip = N[C@@H](Cc1ccc(-c2ccccc2)cc1)C(=O)O; Phe(3-Cl) = N[C@@H](Cc1cccc(Cl)c1)C(=O)O; Phe(3-Me) = Cc1cccc(C[C@H](N)C(=O)O)c1; aIle = CC[C@@H](C)[C@H](N)C(=O)O; 3Pal = N[C@@H](Cc1cccnc1)C(=O)O; 4Pal = N[C@@H](Cc1ccncc1)C(=O)O; 2Thi = N[C@@H](Cc1cccs1)C(=O)O; Cha = N[C@@H](CC1CCCCC1)C(=O)O; Cit = NC(=O)NCCC[C@H](N)C(=O)O; Ile(3ξ) = CCC(C)[C@H](N)C(=O)O; dCha = N[C@H](CC1CCCCC1)C(=O)O; Carboxymethyl = O=C(O)C*; Orn = NCCC[C@H](N)C(=O)O; Dab = NCC[C@H](N)C(=O)O; Abu = CC[C@H](N)C(=O)O; Dap = NC[C@H](N)C(=O)O; Piv = CC(C)(C)C(=O)*; Propargyl = C#CC*

The term IC50 denotes the midpoint of a concentration-inhibition curve.

This experiment concerns the target T1, human PD-1 / PD-L1-Ig binding on Jurkat cell line over-expressing human PD-1 (Jurkat-PD-1) (Homo sapiens, UniProt Q15116).
T1 construct: expressed in transfected cells; host or cells: Jurkat
In words: Jurkat-PD-1 Cell Binding High-Content Screening Assay (CBA). It is filed as cell-based. To be noted: Jurkat-PD-1 cells, PE-labeled PD-L1-Ig 20 nM final; read-out: Jurkat HPD1_PDL1 IC50. The procedure, abridged:
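Jurkat cells over-expressing human PD-1, in DMEM/10% FCS, pre-incubated with compound 2 h at 37° C. PE-labeled human PD-L1-Ig (20 nM final) added for 1 h; cells fixed in paraformaldehyde with Hoechst 33342 nuclear stain, washed, and bound fluorescence quantified by high-content imaging.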

T1 sequence (Q15116 25-288): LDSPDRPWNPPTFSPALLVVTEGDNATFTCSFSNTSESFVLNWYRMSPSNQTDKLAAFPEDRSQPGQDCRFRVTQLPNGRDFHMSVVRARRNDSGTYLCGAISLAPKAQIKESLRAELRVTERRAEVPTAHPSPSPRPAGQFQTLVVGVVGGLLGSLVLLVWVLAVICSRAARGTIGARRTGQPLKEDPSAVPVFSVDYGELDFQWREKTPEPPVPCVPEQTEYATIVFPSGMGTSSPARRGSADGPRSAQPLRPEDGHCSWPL

For `C#CCOc1ccc(C[C@@H]2NC(=O)[C@H](Cc3ccc(-c4ccccc4)cc3)NC(=O)[C@H](Cc3ccc(C(=O)O)cc3)NC(=O)[C@H](Cc3cccc(C)c3)NC(=O)[C@H](CC(=O)O)NC(=O)[C@H](Cc3ccc(C(=O)O)cc3)NC(=O)[C@H](CC)NC(=O)CSC[C@@H](C(=O)N[C@@H](CCN)C(N)=O)NC(=O)[C@H](CCC(=O)O)NC(=O)[C@H](C(C)C)NC(=O)[C@H](CC3CCCCC3)NC(=O)[C@H](CCN)NC(=O)[C@@H](CC(C)C)NC(=O)[C@H](CCCN)NC2=O)cc1` [Compound 1839] ({CH2CO}-[Abu][Phe(4-COOH)]D[Phe(3-Me)][Phe(4-COOH)][Bip]Y(Propargyl)[Orn][dL][Dab][Cha]VEC[Dab]-NH2; thioether N-14), the IC50 turned out to be 2.3 nM.

On to `CC(C)C[C@H]1NC(=O)[C@H](CCCN)NC(=O)[C@H](C(C)C)NC(=O)[C@H](Cc2ccc(-c3ccccc3)cc2)NC(=O)[C@H](C(C)C)NC(=O)[C@H](Cc2ccc(O)cc2)NC(=O)[C@H](CC(=O)O)NC(=O)[C@H](Cc2ccc(OCC(=O)O)cc2)NC(=O)[C@H](CN)NC(=O)CSC[C@@H](C(=O)N[C@@H](CCN)C(N)=O)NC(=O)[C@H](CCCCN)NC(=O)[C@H](C(C)C)NC(=O)[C@H](CC2CCCCC2)NC(=O)[C@H](CCN)NC1=O` [Compound 2033] ({CH2CO}-[Dap]Y(Carboxymethyl)DYV[Bip]V[Orn][dL][Dab][Cha]VKC[Dab]-NH2; thioether N-14), for which the IC50 came out at 18.4 nM.

On to `Cc1cccc(C[C@@H]2NC(=O)[C@H](CC(=O)O)NC(=O)[C@H](Cc3ccc(OCC(=O)O)cc3)NC(=O)[C@H](CCNC(=O)C(C)(C)C)NC(=O)CSC[C@@H](C(=O)N[C@@H](CCN)C(N)=O)NC(=O)[C@H](CCCN)NC(=O)[C@H](C(C)C)NC(=O)[C@H](CC3CCCCC3)NC(=O)[C@H](CCN)NC(=O)[C@@H](CC(C)C)NC(=O)[C@H](CCCN)NC(=O)[C@H](Cc3ccc(O)cc3)NC(=O)[C@H](Cc3ccc(-c4ccccc4)cc3)NC(=O)[C@H](Cc3ccc(O)cc3)NC2=O)c1` [Compound 2040] ({CH2CO}-[Dab](Piv)Y(Carboxymethyl)D[Phe(3-Me)]Y[Bip]Y[Orn][dL][Dab][Cha]V[Orn]C[Dab]-NH2; thioether N-14), for which the IC50 was determined as 4.9 nM.

`Cc1cccc(C[C@@H]2NC(=O)[C@H](CC(=O)O)NC(=O)[C@H](Cc3ccncc3)NC(=O)[C@H](CN)NC(=O)CSC[C@@H](C(=O)N[C@@H](C)C(N)=O)NC(=O)[C@H]([C@@H](C)O)NC(=O)[C@H](C(C)C)NC(=O)[C@H](CC(C)C)NC(=O)[C@H](CCN)NC(=O)[C@@H](CC(C)C)NC(=O)[C@H](CCCN)NC(=O)[C@H](C(C)C)NC(=O)[C@H](Cc3ccc(-c4ccccc4)cc3)NC(=O)[C@H](C(C)C)NC2=O)c1` [Compound 1223] ({CH2CO}-[Dap][4Pal]D[Phe(3-Me)]V[Bip]V[Orn][dL][Dab]LVTCA-NH2; thioether N-14): the IC50 turned out to be 6.1 nM.

Consider `CCC(C)[C@@H]1NC(=O)[C@H](Cc2ccc(-c3ccccc3)cc2)NC(=O)[C@H](C(C)C)NC(=O)[C@H](Cc2cccc(C)c2)NC(=O)[C@H](CC(=O)O)NC(=O)[C@H](Cc2ccc(-c3cccc(C(=O)O)c3)cc2)NC(=O)[C@H](Cc2ccc(OCC(=O)O)cc2)NC(=O)CSC[C@@H](C(=O)N[C@@H](C)C(N)=O)NC(=O)[C@H]([C@@H](C)O)NC(=O)[C@H](C(C)C)NC(=O)[C@H](CC2CCCCC2)NC(=O)[C@H](CCN)NC(=O)[C@@H](CC(C)C)NC(=O)[C@H](CCCN)NC1=O` (some centres unmarked) [Compound 2225], for which the IC50 came out at 182 nM.

Regarding `CC(C)C[C@H]1NC(=O)[C@H](CCCN)NC(=O)[C@H](CCCNC(N)=O)NC(=O)[C@H](Cc2ccc(-c3ccccc3)cc2)NC(=O)[C@H](C(C)C)NC(=O)[C@H](Cc2c[nH]c3ccccc23)NC(=O)[C@H](CC(=O)O)NC(=O)[C@H](Cc2ccc(O)cc2)NC(=O)[C@H](Cc2ccc(OCC(=O)O)cc2)NC(=O)CSC[C@@H](C(=O)N[C@@H](C)C(N)=O)NC(=O)[C@H]([C@@H](C)O)NC(=O)[C@H](C(C)C)NC(=O)[C@H](CC2CCCCC2)NC(=O)[C@H](CCN)NC1=O` [Compound 1165], the IC50 stood at 14.6 nM.

For `CC(C)C[C@H]1NC(=O)[C@H](CCCN)NC(=O)[C@H](CCC(=O)O)NC(=O)[C@H](Cc2ccc(-c3ccccc3)cc2)NC(=O)[C@H](C(C)C)NC(=O)[C@H](Cc2cccc(Cl)c2)NC(=O)[C@H](CC(=O)O)NC(=O)[C@H](Cc2ccc(OCC(=O)O)cc2)NC(=O)[C@H](Cc2ccccc2)NC(=O)CSC[C@@H](C(=O)N[C@@H](C)C(N)=O)NC(=O)[C@H]([C@@H](C)O)NC(=O)[C@H](C(C)C)NC(=O)[C@H](CC2CCCCC2)NC(=O)[C@H](CCN)NC1=O` [Compound 1488] ({CH2CO}-FY(Carboxymethyl)D[Phe(3-Cl)]V[Bip]E[Orn][dL][Dab][Cha]VTCA-NH2; thioether N-14), the IC50 turned out to be 10.6 nM.

Consider `CCC(C)[C@@H]1NC(=O)[C@H](Cc2ccc(-c3ccccc3)cc2)NC(=O)[C@H](C(C)C)NC(=O)[C@H](Cc2c[nH]c3ccccc23)NC(=O)[C@H](CC(=O)O)NC(=O)[C@H](Cc2cccnc2)NC(=O)[C@H](Cc2ccncc2)NC(=O)CSC[C@@H](C(=O)N[C@@H](C)C(N)=O)NC(=O)[C@H]([C@@H](C)O)NC(=O)[C@H](C(C)C)NC(=O)[C@H](CC2CCCCC2)NC(=O)[C@H](CCN)NC(=O)[C@@H](CC(C)C)NC(=O)[C@H](CCCN)NC1=O` (stereo partly drawn) [Compound 2232] ({CH2CO}-[4Pal][3Pal]DWV[Bip][Ile(3ξ)][Orn][dL][Dab][Cha]VTCA-NH2; thioether N-14), for which the IC50 was 13.6 nM.

On to `CC(C)C[C@H]1NC(=O)[C@H](CCCN)NC(=O)[C@H](CCC(=O)O)NC(=O)[C@H](Cc2ccc(-c3ccccc3)cc2)NC(=O)[C@H](C(C)C)NC(=O)[C@H](Cc2cccs2)NC(=O)[C@H](CC(=O)O)NC(=O)[C@H](Cc2ccncc2)NC(=O)[C@H](Cc2ccc(OCC(=O)O)cc2)NC(=O)CSC[C@@H](C(=O)N[C@@H](C)C(N)=O)NC(=O)[C@H]([C@@H](C)O)NC(=O)[C@H](C(C)C)NC(=O)[C@H](CC2CCCCC2)NC(=O)[C@H](CCN)NC1=O` [Compound 2202] ({CH2CO}-Y(Carboxymethyl)[4Pal]D[2Thi]V[Bip]E[Orn][dL][Dab][Cha]VTCA-NH2; thioether N-14), for which the IC50 was found to be 26.5 nM.

On to `CC[C@@H](C)[C@@H]1NC(=O)[C@H](Cc2ccc(-c3ccccc3)cc2)NC(=O)[C@H](C(C)C)NC(=O)[C@H](Cc2c[nH]c3ccccc23)NC(=O)[C@H](CC(=O)O)NC(=O)[C@H](Cc2ccc(O)cc2)NC(=O)[C@H](CC(N)=O)NC(=O)CSC[C@@H](C(=O)N[C@@H](C)C(N)=O)NC(=O)[C@H]([C@@H](C)O)NC(=O)[C@H](C(C)C)NC(=O)[C@H](CC2CCCCC2)NC(=O)[C@H](CCN)NC(=O)[C@@H](CC2CCCCC2)NC(=O)[C@H](CCCN)NC1=O` [Compound 1631] ({CH2CO}-NYDWV[Bip][aIle][Orn][dCha][Dab][Cha]VTCA-NH2; thioether N-14), for which the IC50 is 44.1 nM.

As for `CC(C)C[C@@H]1NC(=O)[C@H](CCN)NC(=O)[C@@H](CC(C)C)NC(=O)[C@H](CCN)NC(=O)[C@H](CCCNC(N)=O)NC(=O)[C@H](Cc2ccc(-c3ccccc3)cc2)NC(=O)[C@H](C(C)C)NC(=O)[C@H](Cc2c[nH]c3ccccc23)NC(=O)[C@H](CC(=O)O)NC(=O)[C@H](Cc2ccc(O)cc2)NC(=O)[C@H](CC(N)=O)NC(=O)CSC[C@@H](C(=O)NCC(N)=O)NC(=O)[C@H](CO)NC(=O)[C@H](C(C)C)NC1=O` [Compound 1114] ({CH2CO}-NYDWV[Bip][Cit][Dab][dL][Dab]LVSCG-NH2; thioether N-14), the IC50 is 31.6 nM.
